In assay [1] the test system is M. tuberculosis H37Rv mutant 5A (amiC K195∗). It counts as cell-based, Mycobacterium tuberculosis.
In assay [2] the test system is M. tuberculosis H37Rv mutant 5B (amiC W238∗). Format: cell-based, Mycobacterium tuberculosis.
Assay [3] concerns M. tuberculosis H37Rv mutant 5G (amiC S157F). It counts as cell-based, Mycobacterium tuberculosis.
Assay [4] has as its system M. tuberculosis H37Rv mutant 5H (amiC + g in aa352). It counts as cell-based, Mycobacterium tuberculosis.
In assay [5] the test system is M. tuberculosis H37Rv mutant 5I (amiC + g in aa352). Format: cell-based, Mycobacterium tuberculosis.
Assay [6] concerns M. tuberculosis H37Rv mutant 5J (trpB A168V). It counts as cell-based, Mycobacterium tuberculosis.
Assay [7] has as its system M. tuberculosis H37Rv mutant 5K (trpB A134V). Format: cell-based, Mycobacterium tuberculosis.
Assay [8] concerns M. tuberculosis H37Rv mutant 5L (trpE H170R). Format: cell-based, Mycobacterium tuberculosis.
Assay [9] has as its system M. tuberculosis H37Rv mutant 5M (trpB D261G). It counts as cell-based, Mycobacterium tuberculosis.
Assay [10] concerns M. tuberculosis H37Rv mutant 5N (trpA D54G). Format: cell-based, Mycobacterium tuberculosis.
The test system of assay [11] is M. tuberculosis H37Rv mutant 5O (trpB D261G). It counts as cell-based, Mycobacterium tuberculosis.
Assay [12] concerns M. tuberculosis H37Rv recombineered trpB / trpE mutant strains. It counts as cell-based, Mycobacterium tuberculosis.
For assay [13], the system named is C1-resistant mutants of M. tuberculosis. Format: cell-based, Mycobacterium tuberculosis.
For assay [14], the system named is C5R mutants of Mtb. Format: cell-based, Mycobacterium tuberculosis.
In assay [15] the target is TrpE H170R (Mycobacterium tuberculosis, UniProt P9WFX3, H170R). It counts as biochemical.
The test system of assay [16] is M. tuberculosis H37Rv overexpressing AmiC (rv2888c, Psmyc). It counts as cell-based, Mycobacterium tuberculosis.

≈ marks a conversion by molar mass, not a printed value. Bounds are passed on as bounds.

As a reminder, the MIC is the lowest concentration found to suppress growth. In the case of `Nc1cccc2[nH]ccc12` [4-AI, 4-aminoindole, reference compound], the minimal inhibitory concentration (MIC) turned out to be 4.68 µM (≈ 0.619 µg/mL) in assay [1]; 4.68 µM (≈ 0.619 µg/mL) in [2]; 4.68 µM (≈ 0.619 µg/mL) in [3]; 4.68 µM (≈ 0.619 µg/mL) in [4]; 4.68 µM (≈ 0.619 µg/mL) in [5]; 100 µM (≈ 13.2 µg/mL) in assay [6]. Also, the minimal inhibitory concentration (MIC) in assay [7], in assay [8], in assay [9], in assay [10] and in assay [11] was 100 µM (≈ 13.2 µg/mL) in each case. Besides, the “shift in MIC” value in [8] was “approximately 4 fold”. Also, the “resistance of recombineered strains” value in [12] is given as “resistant”. In addition, the “cross-resistance of amiC mutants” value in assay [13] is on record as “not cross-resistant”. The “resistance of trpABE mutants” value in assay [13] is “highly resistant”. The “cross-resistance of C5R mutants” value in assay [14] was “no cross-resistance”.

As for `O=C(COc1ccccc1)Nc1cccc2[nH]ccc12` [C2, N-(1H-indol-4-yl)-2-phenoxyacetamide], the MIC in assay [1] was found to be 75 µM (≈ 20 µg/mL); in assay [2] it was 75 µM (≈ 20 µg/mL); in assay [3] it was 75 µM (≈ 20 µg/mL); in assay [4], 75 µM (≈ 20 µg/mL); in [5], 75 µM (≈ 20 µg/mL); in [6], 25 µM (≈ 6.66 µg/mL). Besides, the MIC in assay [7], in assay [8], in assay [9], in [10] and in [11] was 25 µM (≈ 6.66 µg/mL) each time. In assay [12], the “resistance of recombineered strains” value is “resistant”. The “cross-resistance of C1-resistant mutants” value in assay [13] is on record as “cross-resistant”.

With `O=C(Nc1cccc2[nH]ccc12)C1CCCCC1` [C3, N-(1H-indol-4-yl)cyclohexanecarboxamide], the minimal inhibitory concentration (MIC) in assay [1], in assay [2], in [3], in assay [4], in [5] and in assay [6] was above 100 µM in each case. The MIC in assay [7], in [8], in assay [9], in assay [10] and in assay [11] was above 100 µM throughout. In addition, in [13], the “cross-resistance of C1-resistant mutants” value is recorded as “cross-resistant”.

With `O=C(Nc1cccc2[nH]ccc12)c1ccc(OCC(F)(F)F)cn1` [C4, N-(1H-indol-4-yl)-5-(2,2,2-trifluoroethoxy)picolinamide], the MIC in [1] was 75 µM (≈ 25.1 µg/mL); in [2], 75 µM (≈ 25.1 µg/mL); in assay [3], 75 µM (≈ 25.1 µg/mL); in [4], 75 µM (≈ 25.1 µg/mL); in assay [5], 75 µM (≈ 25.1 µg/mL); in [6] it was 25 µM (≈ 8.38 µg/mL). Besides, the MIC in assay [7], in [8], in assay [9], in [10] and in assay [11] was 25 µM (≈ 8.38 µg/mL) throughout. Further, in [13], the “cross-resistance of C1-resistant mutants” value is “cross-resistant”.

As for `CNS(=O)(=O)c1ccc2c(c1)CCN2C(=O)c1ccc(C)s1` [C5, reference compound], the MIC in assay [1], in assay [2], in assay [3], in [4], in assay [5] and in assay [6] was 0.39 µM (≈ 0.131 µg/mL) in each case. For the same molecule, the MIC in assay [7] is 0.39 µM (≈ 0.131 µg/mL); in assay [8], 0.39 µM (≈ 0.131 µg/mL); in assay [9] it was 0.098 µM (≈ 0.033 µg/mL); in [10], 0.19 µM (≈ 0.0639 µg/mL); in assay [11], 0.19 µM (≈ 0.0639 µg/mL). The “cross-resistance of mutants raised against C1” value in [13] is “None of the resistant mutants raised against C1 were cross-resistant”. Further, in [13], the “susceptibility of one C1R mutant relative to WT” value was “more susceptible”.

For the molecule `NNC(=O)c1ccncc1` [INH, isoniazid, reference compound], the MIC in [1], in assay [2], in assay [3], in [4], in [5] and in assay [6] was 0.12 µM (≈ 0.0165 µg/mL) each time. Further, the MIC in [7], in [8], in assay [9], in assay [10] and in assay [11] was 0.12 µM (≈ 0.0165 µg/mL) in each case. The “resistance of recombineered strains” value in assay [12] is given as “not”.

Regarding `N[C@@H](Cc1c[nH]c2ccccc12)C(=O)O` [L-Trp, L-tryptophan], in [15], the “loss of sensitivity to allosteric inhibition, H170R vs WT” value came to 250 times.

Consider “N-(1H-indol-4-yl)-6-(2,2,2-trifluoroethoxy)nicotinamide [C1]”, for which the MIC in assay [1] was above 100 µM; in assay [2] it was above 100 µM; in [3], above 100 µM; in assay [4], above 100 µM; in assay [5] it was above 100 µM; in assay [6] it was 6.25 µM. Further, the MIC in assay [7], in assay [8], in [9], in [10] and in assay [11] was 6.25 µM in each case. Moreover, the “change in MIC on overexpression of AmiC” value in [16] is listed as “did not result in a noticeable change in MIC”. Besides, in assay [12], the “resistance of recombineered strains” value is “resistant”. Further, the “cross-resistance of C5R mutants” value in [14] was “no cross-resistance”.

(Values after article PMC8379015, “Resistance of Mycobacterium tuberculosis to indole 4-carboxamides occurs through alterations in drug metabolism and tryptophan biosynthesis” (Cell Chemical Biology, 2021).)
